Data taken from US11478475B2, “Inhibitor of histone deacetylase 6 in the treatment of t-cell acute lymphoblastic leukemia (T-ALL) and other neoplasia with high expression of notch-3” (ISTITUTO ONCOLOGICO VENETO IOV-IRCCS, priority 2017, dated 2022).
Residues, ends and D or L forms follow the SMILES beside them. *: point of attachment. Cbz = O=C(OCc1ccccc1)*

Legend:
HDAC6 = assay: Western blotting, inhibition of the target HDAC6 in MDA-MB-468 cells; assay type: cell-based; details: 8 μM
Method: (§1) In the assay of FIG. 11, Rocilinostat (ACY 1215) is used at a concentration of 8 μM in MDA-MB-468 cells. The expression of Notch3 and other markers was evaluated in cellular lysate by Western blotting.

Notch3 [1] = assay: Western blotting of Notch3 in MDA-MB-468 cells; assay type: cell-based; details: 8 μM
Method: as §1

acetylated tubulin = assay: Acetylated tubulin levels in HCC-1143 cells; assay type: cell-based; details: 8 μM, 24 hours
Method: (§2) To evaluate the effects of rocilinostat on Notch3 expression in HCC-1143 cells, HCC-1143 cells were treated in vitro with rocilinostat at a concentration of 8 μM for 24 hours. […] The increase in acetylated tubulin levels confirms the activity of rocilinostat.

NOTCH3 FL protein = assay: Notch3 FL protein levels in HCC-1143 cells; assay type: cell-based; details: 8 μM, 24 hours
Method: as §2

Notch3 [2] = assay: Cytofluorometric evaluation of Notch3 expression in MDA-MB-468 cells; assay type: cell-based
Method: The graph of FIG. 12 confirms the reduction of Notch3 expression in MDA-MB-468 cell membrane after treatment with rocilinostat (8 μM) at 24 hours, in accordance with the results of the WB.
For the assay of FIG. 13, the following protocol was used:
(§3) Day 1: coating of plate with Notch ligands (ligand concentration 4 ng/uL)
(§4) Day 3 treatment with rocilinostat (16 μM) or control (DMSO)
Day 4: Marking+reading by cytofluorometer

[3] = tested on: acetylated tubulin (Ac. α Tub.); assay: Western blotting of acetylated tubulin in T-ALL cell lines; assay type: cell-based, human; details: 16 hours
Method: (§5) In particular, in FIG. 1A is shown the three cell lines of T-ALL MOLT3, Jurkat and DND41 were treated for 16 hours in vitro with TSA 500 nM. The western blotting confirms the decrease of the full length (FL) Notch3 receptor after treatment. Inhibition of HDACs is confirmed by the increase of acetylated tubulin (Ac. α Tub.). […] The treatment with TSA is accompanied by a decrease in the target genes pTα, CR2, DTX-1 in the cell lines shown in FIG. 1D and in the primary cells shown in FIG. 1E. (*P<0.05, **P<0.01, ***P<0.001, mean±SD of three independent experiments).
(§6) In FIG. 8A, JURKAT cells were treated in vitro with rocilinostat at a concentration of 8 μM for 16 hours.

[4] = tested on: MDA-MB-468 breast cancer cells; assay: Cell mortality by Annexin V/propidium iodide in MDA-MB-468 cells; assay type: cell-based; details: 16 μM
Method: For the assay of FIG. 14, the following protocol was used:
(§7) Day 1: coating (ligand concentration 4 ng/uL)
(§8) Day 3 treatment with 16 μM rocilinostat
Day 5: marking with Annexin V/propidium iodide+reading of mortality by cytofluorometer

HCC-1143 cells = assay: Dose-response growth curve in HCC-1143 cells; assay type: cell-based
Notch3 [5] = assay: Cytofluorometric evaluation of Notch3 membrane expression in HCC-1143 cells; assay type: cell-based
Method: The following protocol was used for the graphs of FIG. 18:
as §3, §4
Day 4: marking+reading by cytofluorometer

two T-ALL cell lines = assay: Cell viability by ATPlite assay; assay type: cell-based, human; details: 48 hours, indicated concentrations
[6] = tested on: T-ALL cell lines and primary lines; assay: Cell death by annexin V marking and cytofluorometer in T-ALL cells; assay type: cell-based, human; details: 24 hours
Method: (§9) In FIG. 2A and the 7 primary lines shown in FIG. 2B were treated for 24 hours in vitro with TSA 500 nM. Cell death was evaluated by marking with annexin V and analysis with the cytofluorometer. Proliferation inhibition shown in FIG. 2C was assessed in the MOLT3 line by cell count (left panel) and MTS assay (right panel). In FIG. 2D, the Jurkat cells were infected with a control virus (RV-CNTR) or with an expressing Notch3 virus (RV-N3) and subsequently treated with TSA 500 nM for 24 hours. Cell death was evaluated by a luminescence assay for caspase activation (*P<0.05, **P<0.01, ***P<0.001, mean±SD of three independent experiments).
(§10) In FIG. 4A, T-ALL cell lines and primary cells were treated in vitro for 16 hours with the HDAC6 inhibitor Tubacin (2 μM, TUB), HDAC1 inhibitor (2 μM, HDAC1i), or HDAC8 inhibitor (2 μM, HDAC8i). Treatment with Tubacin is shown in FIG. 4B, but not with the other inhibitors, is accompanied by a decrease in the target genes pTα, CR2, DTX-1. In FIG. 4C, the three cell lines of T-ALL MOLT3, Jurkat and DND41 (left) and n=3 primary lines (right) were treated for 24 hours in vitro with the compounds previously described, and cell death was evaluated by marking with Annexin V and analysis by cytofluorometer (*P<0.05, **P<0.01, ***P<0.001, mean±SD of three independent experiments).
In FIG. 5 the T-ALL cell lines were treated in vitro for 24 hours with the HDAC6 Tubacin inhibitor (2 μM, TUB) and cell death was assessed by marking with Annexin V and analysis by cytofluorometer (*P<0.05, **P<0.01, ***P<0.001, mean±SD of three independent experiments).
as §6

Notch3 receptor [7] = assay: Western blotting of Notch3 protein in T-ALL cell lines; assay type: cell-based, human; details: 16 hours; for Notch3 protein levels, inhibitor added to TSA: MOLT3 and TALL1 cells, with proteasome or lysosome inhibitor
Method: In particular, in FIG. 1A is shown the three cell lines of T-ALL MOLT3, Jurkat and DND41 were treated for 16 hours in vitro with TSA 500 nM.
MOLT3 cells shown in FIG. 3A and TALL1 cells shown in FIG. 3B were treated with TSA 500 nM for 16 hours, and simultaneously in the presence or absence of a proteasome (MG132) or lysosome (chloroquine—CHL) inhibitor. […] The numbers below the bands refer to densitometric analysis.
In FIG. 4A, T-ALL cell lines and primary cells were treated in vitro for 16 hours with the HDAC6 inhibitor Tubacin (2 μM, TUB), HDAC1 inhibitor (2 μM, HDAC1i), or HDAC8 inhibitor (2 μM, HDAC8i). […] In FIG. 4C, the three cell lines of T-ALL MOLT3, Jurkat and DND41 (left) and n=3 primary lines (right) were treated for 24 hours in vitro with the compounds previously described, and cell death was evaluated by marking with Annexin V and analysis by cytofluorometer (*P<0.05, **P<0.01, ***P<0.001, mean±SD of three independent experiments).
(§11) In FIGS. 6A-6C, MOLT3 and TALL1 cell lines were infected with two different lentiviruses that block HDAC6 expression (shHDAC6 #1 and #2).
as §6

[8] = tested on: HCC1143 breast cancer cells; assay: Cell mortality by Annexin V/propidium iodide in HCC-1143 cells; assay type: cell-based; details: 16 μM
Method: For the graphs of FIG. 19, the following protocol was used:
as §7, §8
Day 5: marking with Annexin V/propidium iodide+reading of mortality by cytofluorometer.

[9] = tested on: Notch3 receptor present in the membrane; assay: Cytofluorometric analysis of Notch3 membrane expression in T-ALL cells; assay type: cell-based, human
TALL1 cells = assay: Cytotoxicity seen as reduction of actin in Western blot; assay type: cell-based, human; details: 20 μM
[10] = tested on: target genes pTα, CR2, DTX-1; assay: Expression of Notch target genes in T-ALL cell lines and primary cells; assay type: cell-based, human
Method: as §5, §10

Notch3 receptor [11] = assay: Notch3 protein levels in patient-derived primary T-ALL lines; assay type: cell-based, human; details: n=7 patient-derived primary lines; TSA 500 nM, 16 hours
Method: Initially we treated 3 T-ALL cell lines in the laboratory with Tricostatin A (TSA), a generic commercial inhibitor that inhibits the whole class of HDACs that is commonly used in experimental practices. […] The same result was obtained by treating 7 patient-derived primary lines in vitro with TSA.
as §5

[12] = tested on: Jurkat, MOLT3 and TALL1 cells; assay: Cell death by luminescence assay for caspase activation; assay type: cell-based, human; details: TSA 500 nM, 24 hours
Method: as §9, §11

[13] = tested on: Notch3 and the lysosomal marker LAMP2; assay: Immunofluorescence analysis of Notch3/LAMP2 co-localization; assay type: cell-based; details: after treatment with TSA, N=21 cells
MOLT3 line = assay: Proliferation by cell count and MTS assay; assay type: cell-based, human; details: TSA
Method: as §9

[14] = MOLT3, Jurkat and DND41, TSA 500 nM

In the case of `O=C(CCCCCCNC(=O)c1cnc(N(c2ccccc2)c2ccccc2)nc1)NO` [rocilinostat, ricolinostat], the “target (HDAC6) inhibition” value (HDAC6; 16 hours) is reported as “inhibited”, the “target (HDAC6) inhibition” value (HDAC6; 24 hours) is reported as “inhibited” and the “target (HDAC6) inhibition” value (HDAC6; 48 hours) is reported as “no longer inhibited”. The “Notch3 expression, Western blotting” value (Notch3 [1]; 16 hours) was “not reduced”, the “Notch3 expression, Western blotting” value (Notch3 [1]; 24 hours) was “drop in Notch3” and the acetylated tubulin levels (acetylated tubulin) was “increase”. The “levels of NOTCH3 FL protein” value (NOTCH3 FL protein) was “decreases”, the “Notch3 expression in cell membrane” value (Notch3 [2]; 8 μM, 24 hours) was “reduction” and the “Notch3 expression, intensity of expression (MFI)” value (Notch3 [2]; 16 μM) was “marked negative effect”. For the same compound, the “Notch3 expression, percentage of positive cells (%)” value (Notch3 [2]; 16 μM) was “marked negative effect”, the “effect on Notch3 expression in the presence of Notch ligands (JAG1 and DLL4)” value (Notch3 [2]; 16 μM, ligand 4 ng/uL) was “not substantially affected” and the acetylated tubulin levels ([3]; JURKAT cells, 8 μM) was “increase”. The “cell mortality (Annexin V/propidium iodide)” value ([4]; Day 3 to Day 5) was “causes the death”, the “cell mortality in the presence of Notch ligands (JAG1 and DLL4)” value ([4]; ligand 4 ng/uL) was “maintained or slightly increased” and the “growth of HCC-1143 cells (dose-response curve)” value (HCC-1143 cells) was “inhibits the growth of HCC-1143 cells with dose-dependent effects”. The “Notch3 expression, intensity of expression (MFI)” value (Notch3 [5]; 16 μM) was “more evident”, the “Notch3 expression, percentage of positive cells (%)” value (Notch3 [5]; 16 μM) was “moderate negative effect” and the “effects on Notch3 expression in the presence of Notch ligands (JAG1 and DLL4)” value (Notch3 [5]; 16 μM, ligand 4 ng/uL) was “not much influenced”. For the same compound, the Notch3 membrane expression (Notch3 [5]; rocilinostat alone) was “reduction”, the “cell viability (ATPlite assay)” value (two T-ALL cell lines) was “marked negative effect on cell growth” and the “apoptosis (annexin V)” value ([6]; JURKAT and TALL1, 8 μM) was “strong increase of cell death”. The “levels of the NOTCH3 FL protein, Western blotting” value (Notch3 receptor [7]; JURKAT cells, 8 μM) was “decreases”, the “cell mortality (Annexin V/propidium iodide)” value ([8]; Day 3 to Day 5) was “causes the death” and the “cell mortality in the presence of Notch ligands (JAG1 and DLL4)” value ([8]; ligand 4 ng/uL) was “maintained”. The Notch3 membrane expression ([9]; TALL1 cells, 8 μM, 16 hours) was “reduces”.

With `CC(C)C[C@@H](C=O)NC(=O)[C@H](CC(C)C)NC(=O)[C@H](CC(C)C)NC(=O)OCc1ccccc1` [MG132] (Cbz-Leu-Leu-Leu-aldehyde) the “Notch3 protein levels, inhibitor added to TSA” value (Notch3 receptor [7]; TSA 500 nM) was “further lowers”.

In the case of `CC(C)C[C@H](NC(=O)[C@H](Cc1ccccc1)NC(=O)c1cnccn1)B(O)O` [Bortezomib], the “cytotoxicity (reduction of actin in Western blot)” value (TALL1 cells) is reported as “high cytotoxicity” and the Notch3 expression ([9]; TALL1 cells, 20 μM) is reported as “negative effect”.

For `CC(/C=C/C(=O)NO)=C\[C@@H](C)C(=O)c1ccc(N(C)C)cc1` [TSA, Tricostatin A], the “target genes pTα, CR2, DTX-1” value ([10]; cell lines and primary cells, treatment with TSA) was “decrease”, the “acetylated tubulin (Ac. α Tub.)” value [3, 14] was “increase” and the “Notch3 receptor protein levels” value (Notch3 receptor [11]) was “confirming the result seen in the cell lines”. For the same compound, the “cell death (caspase activation) after restoring Notch3 levels (RV-N3 vs RV-CNTR)” value [12] was “die significantly less”, the “cell death (annexin V)” value ([6]; T-ALL cell lines and 7 primary lines, TSA 500 nM) was “induction of cell death” and the “full length (FL) Notch3 receptor, western blotting” value (Notch3 receptor [7]; [14]) was “decrease”. For the same compound, the “co-localization between Notch3 and LAMP2” value [13] was “increase in co-localization”, the “Notch3 receptor present in the membrane” value ([9]; Jurkat cells, Notch2/3 antibody, cytofluorometer, TSA) was “decrease” and the “proliferation (cell count, MTS assay)” value (MOLT3 line) was “inhibition of proliferation”.

In the case of `O=C(CCCCCCC(=O)Nc1ccc([C@H]2O[C@@H](CSc3nc(-c4ccccc4)c(-c4ccccc4)o3)C[C@@H](c3ccc(CO)cc3)O2)cc1)NO` [Tubacin], the “target genes pTα, CR2, DTX-1” value ([10]; T-ALL cells, 2 μM, 16 hours) is reported as “decrease”, the “cell death (annexin V)” value ([6]; MOLT3, Jurkat, DND41 and n=3 primary lines, 2 μM) is reported as “effects comparable to the generic TSA inhibitor” and the “sensitivity of TALL1 cell line compared with other cell lines (cell death, Annexin V)” value ([6]; Tubacin 2 μM) is reported as “significantly more sensitive”. For the same compound, the “decrease in Notch3 protein levels” value (Notch3 receptor [7]; T-ALL cell lines and primary cells, 2 μM) was “effects comparable to the generic TSA inhibitor”.

In the case of `CCN(CC)CCCC(C)Nc1ccnc2cc(Cl)ccc12` (stereo not drawn) [Chloroquine, chloroquine], the “Notch3 protein levels, inhibitor added to TSA” value (Notch3 receptor [7]; TSA 500 nM) is reported as “decrease of Notch3 blocked”.
